# Tests used:
# [1] = system: bentgrass (breed: penncross); experiment: Example 7: bentgrass rubbed against mascarenegrass treated with rimsulfuron plus surfactant; conditions: in vivo
# Protocol: (§1) Soil was put into a 1/300,000 ha pot, and mascarenegrass was cultivated. Further, soil was put into a 1/1,000,000 ha pot, and bentgrass (breed: penncross) was cultivated. A predetermined amount (rimsulfuron: 35.25 g a.i./ha) of water dispersible granules containing rimsulfuron as an active ingredient (tradename: Hurley DF, manufactured by MARUWA Biochemical Co., Ltd.) was diluted with water containing a predetermined amount of Maku-pika (tradename, the same as in Example 1) and applied by foliar treatment to the mascarenegrass by a small spraygun, so that the amount of the treating liquid corresponds to 2,000 L/ha. Upon expiration of 6 hours after the treatment, the bentgrass not treated with rimsulfuron was rubbed against the mascarenegrass treated therewith (the pot of bentgrass was permitted to slide and reciprocate once).
# (§2) On 13th day after the treatment with rimsulfuron, the state of growth of the bentgrass was evaluated in the same manner as in Example 3, and the growth inhibition rate and the degree of discoloring are shown in Table 10. Further, as comparative areas, an area wherein Kusa-rino (tradename, the same as in Example 1) or Surfactant WK (tradename, manufactured by MARUWA Biochemical Co., Ltd.) was used, and an area wherein no surfactant was used, were provided.
# [2] = system: bentgrass (breed: penncross); experiment: Example 6: bentgrass rubbed against mascarenegrass treated with asulam plus surfactant; conditions: in vivo
# Protocol: Soil was put into a 1/300,000 ha pot, and mascarenegrass were cultivated. Further, soil was put into a 1/1,000,000 ha pot, and bentgrass (breed: penncross) was cultivated. A predetermined amount (asulam: 4625 g a.i./ha) of a treating liquid containing asulam as an active component (tradename: Arsilan liquid preparation, manufactured by Ishihara Sangyo Kaisha, Ltd.) was diluted with water containing a predetermined amount of Maku-pika (tradename, the same as in Example 1), and applied by foliar treatment to the mascarenegrass by a small spraygun so that the amount of the treating liquid corresponds to 2,000 L/ha. Upon expiration of 6 hours after the treatment, the bentgrass not treated with asulam was rubbed against the mascarenegrass treated therewith (the pot of bentgrass was permitted to slide and reciprocate once).
# as §2, with “12th” for “13th”, “asulam,” for “rimsulfuron,”, “9.” for “10.”, “1)” for “1) or Surfactant WK (tradename, manufactured by MARUWA Biochemical Co., Ltd.)”
# [3] = system: bentgrass (breed: penncross); experiment: Example 1: bentgrass pot rubbed against mascarenegrass treated with flazasulfuron plus surfactant; conditions: in vivo
# Protocol: Soil was put into a 1/300,000 ha pot, and mascarenegrass was cultivated. Further, soil was put into a 1/1,000,000 ha pot, and bentgrass (breed: penncross) was cultivated. A predetermined amount (flazasulfuron: 50 g a.i./ha) of water dispersible granules (tradename: SHIBAGEN DF, manufactured by Ishihara Sangyo Kaisha, Ltd.) containing flazasulfuron as an active ingredient, was diluted with water containing a predetermined amount of a silicone surfactant (tradename: Maku-pika, manufactured by Ishihara Sangyo Kaisha, Ltd.) and applied by foliar treatment to the mascarenegrass by a small spraygun so that the amount of the treating liquid corresponds to 2,000 L/ha. Immediately after the treatment or upon expiration of 6 hours after the treatment, the bentgrass not treated with flazasulfuron was rubbed against the mascarenegrass treated with flazasulfuron (the pot of bentgrass was permitted to slide and reciprocate once).
# On 14th day after the treatment with flazasulfuron, the state of growth of the bentgrass was visually observed and investigated, and the growth inhibition rate and the degree of necrosis evaluated in accordance with the following standards are shown in Tables 1 and 2. […]
# [4] = system: bentgrass (breed: penncross); experiment: Example 2: tester walked on flazasulfuron-treated Japanese lawngrass, then stepped on bentgrass; conditions: in vivo, 21 day
# Protocol: Japanese lawngrass was cultivated on ground in 0.6 m^2 (0.4 m×1.5 m). Further, soil was put into a 1/300,000 ha pot, and bentgrass (breed: penncross) was cultivated. A predetermined amount (flazasulfuron: 50 g a.i./ha) of SHIBAGEN DF (tradename, the same as in Example 1) was diluted with water containing a predetermined amount of Maku-pika (tradename, the same as in Example 1) and applied by foliar treatment to the Japanese lawngrass by a small spraygun so that the amount of the treating liquid corresponds to 2,000 L/ha. Immediately after the treatment or upon expiration of 3 hours after the treatment, a tester walked (5 steps) on the Japanese lawngrass treated with flazasulfuron and then stepped on the bentgrass.
# (§3) On 21st day after treatment with flazasulfuron, the state of growth of the bentgrass was evaluated in the same manner as in Example 1, and the growth inhibition rate is shown in Tables 3 and 4. Further, as comparative areas, an area wherein Kusa-rino (tradename, the same as in Example 1) was used, and an area wherein no surfactant was used, were provided.
# [5] = system: bentgrass (breed: Minakuru); experiment: Example 4: field test, tester walked on flazasulfuron-treated mascarenegrass, then stepped on bentgrass; conditions: in vivo
# Protocol: On ground, mascarenegrass in 50 m^2 (2 m×25 m) and bentgrass (breed: Minakuru) in 0.12 m^2 (0.35 m×0.35 m) were respectively cultivated. A predetermined amount (flazasulfuron: 100 g a.i./ha) of a wettable powder containing flazasulfuron as an active ingredient (tradename: SHIBAGEN WP, manufactured by Ishihara Sangyo Kaisha, Ltd.) was diluted with water containing a predetermined amount of a silicone surfactant (tradename: Silwet L-77, manufactured by Witco) and applied by foliar treatment to the mascarenegrass by a knapsack power sprayer so that the amount of the treating liquid corresponds to 2,000 L/ha. After the treating liquid dried, a tester walked (100 m) on the mascarenegrass treated with flazasulfuron, then walked (10 m) on mascarenegrass not treated with flazasulfuron and then stepped on five times on the bentgrass.
# as §3, with “11th” for “21st”, “after the” for “after”, “3,” for “1,”, “and the degree of discoloring are” for “is”, “Table 7.” for “Tables 3 and 4.”
# [6] = system: bentgrass (breed: penncross); experiment: Example 10: bentgrass rubbed against mascarenegrass treated with flazasulfuron plus surfactant (Breakthru); conditions: in vivo
# Protocol: as §1, with “(flazasulfuron: 50” for “(rimsulfuron: 35.25”, “SHIBAGEN DF (tradename, the same” for “water dispersible granules containing rimsulfuron”, “in Example 1)” for “an active ingredient (tradename: Hurley DF, manufactured by MARUWA Biochemical Co., Ltd.)”, “a silicone surfactant (tradename: Breakthru, manufactured by Sankei Chemical Co., Ltd.)” for “Maku-pika (tradename, the same as in Example 1)”, “flazasulfuron,” for “rimsulfuron”
# as §3, with “after the” for “after”, “3,” for “1,”, “and the degree of discoloring are” for “is”, “Table 13.” for “Tables 3 and 4.”
# [7] = system: bentgrass (breed: penncross); experiment: Example 5: bentgrass rubbed against mascarenegrass treated with trifloxysulfuron sodium salt plus surfactant; type: in vivo; conditions: trifloxysulfuron sodium salt 45 g a.i./ha, spreading agent not added, rubbed 6 hours after treatment, 12th day
# Protocol: as §1, with “amount (trifloxysulfuron sodium salt: 45” for “amount (rimsulfuron: 35.25”, “containing trifloxysulfuron sodium salt” for “containing rimsulfuron”, “(tradename: Monument water dispersible granules,” for “(tradename: Hurley DF,”, “by Syngenta Japan K.K.)” for “by MARUWA Biochemical Co., Ltd.)”, “with trifloxysulfuron sodium salt,” for “with rimsulfuron”
# as §2, with “12th” for “13th”, “trifloxysulfuron sodium salt,” for “rimsulfuron,”, “8.” for “10.”, “1)” for “1) or Surfactant WK (tradename, manufactured by MARUWA Biochemical Co., Ltd.)”
smiles,measurement,setting,value
CCS(=O)(=O)c1cccnc1S(=O)(=O)NC(=O)Nc1nc(OC)cc(OC)n1 [rimsulfuron],Bentgrass Discoloring,[1],1.0
same,Bentgrass Growth inhibition rate,"[1]; penncross, bentgrass, 13 day",35%
COC(=O)NS(=O)(=O)c1ccc(N)cc1 [asulam],Bentgrass Discoloring,[2],2.5
same,Bentgrass Growth inhibition rate,"[2]; penncross, bentgrass, 12 day",45%
COc1cc(OC)nc(NC(=O)NS(=O)(=O)c2ncccc2C(F)(F)F)n1 [flazasulfuron],Bentgrass Necrosis,[3],0.8
same,Bentgrass Growth inhibition rate (%),"[3]; penncross, bentgrass, 14 day",48%
same,Bentgrass Growth inhibition rate (%),[4],30%
same,Bentgrass Growth inhibition rate (%),"[5]; Minakuru, bentgrass, 11 day",28%
same,Bentgrass Discoloring,[5],1.0
same,Bentgrass Discoloring,[6],0.5
same,Bentgrass Growth inhibition rate,"[6]; penncross, bentgrass, 21 day",57%
COc1cc(OC)nc(NC(=O)[N-]S(=O)(=O)c2ncccc2OCC(F)(F)F)n1.[Na+] [trifloxysulfuron sodium salt],Bentgrass Growth inhibition rate,[7],60%
same,Bentgrass Discoloring,[7]; degree 0-5.0,1.5

# — patent US9107404B2, “Method for reducing undesirable effects on turfgrass” (Ishihara Sangyo Kaisha, Ltd., priority 2010, dated 2015)
